Measured values published in the SangsterLogP compilation.

Row | SMILES | logP
1 | CCCC(=NOCC)C1C(=O)CC2(CCC(CC)CC2)OC1=O (centres undefined) | 4.48
2 | CCCC(=NOCC)C1C(=O)CC2(CCC(C)C2)OC1=O (centres undefined) | 3.66
3 | CCCC(=NOCC)C1C(=O)CC2(CCCC2)OC1=O (centres undefined) | 3.22
4 | CCCC(=NOCC)C1C(=O)CC2(CCCCC2)OC1=O (centres undefined) | 3.62
5 | CCCC(=NOCC)C1C(=O)CC2(CCC(C)CC2)OC1=O (centres undefined) | 4.07
6 | CCCC(=NOCC)C1C(=O)CC2(C=CCCC2)OC1=O (centres undefined) | 3.2
7 | CC=C(C)C1(C)CC(=O)C(C(CCC)=NOCC)C(=O)O1 (centres undefined) | 3.4
8 | CCCC(=NOCC)C1C(=O)CC2(CC(C)CC(C)C2)OC1=O (centres undefined) | 4.48
9 | CCCC(=NOCC)C1C(=O)CC(C)(C2CC2)OC1=O (centres undefined) | 3.28
10 | CCCC(=NOCC)C1C(=O)CC2(CCSCC2)OC1=O (centres undefined) | 2.9

Next, values leading:

Row | logP | SMILES
11 | 4.75 | CCCC(=NOCC)C1C(=O)CC(c2ccccc2)(c2ccccc2)OC1=O (centres undefined)
12 | 3.9 | CCCC(=NOCC)C1C(=O)CC2(CCCCC2C)OC1=O (centres undefined)
13 | 5 | CCCC(=NOCC)C1C(=O)CC2(CCCc3ccccc32)OC1=O (centres undefined)
14 | 5.3 | CCCC(=NOCC)C1C(=O)CC2(CCC(C(C)(C)C)CC2)OC1=O (centres undefined)
